Laboratory results published in PubChem BioAssay AID330 (DTP/NCI, 2004).
Several values for one entry are separate records, joined by “and”; a condition that tells them apart may be missing. Equal values may be shown once. Inconclusive results and toxic doses are left out. How the source made its calls: active means survival T/C of 150% or more; inactive means T/C below 125% in these data.

Test system: P388 leukemia ip, CD2F1 mice, survival T/C
Assay: NCI In Vivo Anticancer Drug Screen. Data for tumor model P388 Leukemia (intraperitoneal) in CD2F1 (CDF1) mice
Conditions: endpoint: median survival time, higher = longer survival
In short: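 Mice carrying the transplanted tumor received test compound or vehicle. Survival was recorded in each group, and the value is the treated-group measurement divided by that of the vehicle-treated control group.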

[1] = dose: 50.0 mg/kg/injection, schedule: Q01DX009 (ip), vehicle: saline with Tween-80
[2] = dose: 100.0 mg/kg/injection, schedule: Q01DX009 (ip), vehicle: saline with Tween-80
[3] = dose: 200.0 mg/kg/injection, schedule: Q01DX009 (ip), vehicle: saline with Tween-80
[4] = dose: 3.13 mg/kg/injection, schedule: Q01DX009 (ip), vehicle: saline with Tween-80
[5] = dose: 6.25 mg/kg/injection, schedule: Q01DX009 (ip), vehicle: saline with Tween-80
[6] = dose: 12.5 mg/kg/injection, schedule: Q01DX009 (ip), vehicle: saline with Tween-80

Measured: T/C

Cc1nc2ccccc2nc1CBr
inactive: dose: 5.56 mg/kg/injection, schedule: Q01DX009 (ip), vehicle: saline with Tween-80 110 % of control | dose: 8.33 mg/kg/injection, schedule: Q01DX009 (ip), vehicle: saline with Tween-80 120 % of control | dose: 18.7 mg/kg/injection, schedule: Q01DX009 (ip), vehicle: saline with Tween-80 120 % of control

CCN(CC)CCOC(=O)CC1CCCCC1
inactive: [1] 102 % of control | [2] 100 % of control | [3] 99 % of control

Nc1nc(N)sc(=S)n1
inactive: dose: 25.0 mg/kg/injection, schedule: Q01DX009 (ip), vehicle: Klucel (hydroxypropylcellulose) (HPC) 100 % of control | dose: 50.0 mg/kg/injection, schedule: Q01DX009 (ip), vehicle: Klucel (hydroxypropylcellulose) (HPC) 107 % of control | dose: 100.0 mg/kg/injection, schedule: Q01DX009 (ip), vehicle: Klucel (hydroxypropylcellulose) (HPC) 94 % of control | dose: 200.0 mg/kg/injection, schedule: Q01DX009 (ip), vehicle: Klucel (hydroxypropylcellulose) (HPC) 101 % of control

COC(=O)/C=C1/C2C=CC(O2)C1C(=O)OC (centres undefined)
inactive: dose: 50.0 mg/kg/injection, schedule: Q01DX005 (ip), vehicle: saline with Tween-80 96 % of control | dose: 100.0 mg/kg/injection, schedule: Q01DX005 (ip), vehicle: saline with Tween-80 99 % of control | dose: 200.0 mg/kg/injection, schedule: Q01DX005 (ip), vehicle: saline with Tween-80 97 % of control

CC(C)N1C(=O)C(C#N)=C(c2ccccc2)SC1c1ccccc1 (centres undefined)
inactive: [4] 104 % of control | [5] 101 % of control | [6] 106 % of control | [1] 94 % of control | [2] 99 % of control

O=[N+]([O-])c1cnn(Cn2cc([N+](=O)[O-])cn2)c1
inactive: dose: 100.0 mg/kg/injection, schedule: Q04DX003 (ip), vehicle: saline with Tween-80 109 % of control | dose: 200.0 mg/kg/injection, schedule: Q04DX003 (ip), vehicle: saline with Tween-80 116 % of control | dose: 400.0 mg/kg/injection, schedule: Q04DX003 (ip), vehicle: saline with Tween-80 120 % of control

Cc1nc2ccccc2nc1N1C(=O)c2ccccc2C1=O
inactive: dose: 60.0 mg/kg/injection, schedule: Q01DX005 (ip), vehicle: saline with Tween-80 97 % of control | dose: 120.0 mg/kg/injection, schedule: Q01DX005 (ip), vehicle: saline with Tween-80 99 % of control | dose: 240.0 mg/kg/injection, schedule: Q01DX005 (ip), vehicle: saline with Tween-80 95 % of control

O=C1O/C(=C2/OC(=O)c3ccccc32)c2ccccc21
inactive: [4] 94 % of control | [5] 100 % of control | [6] 100 % of control and 91 % of control | dose: 25.0 mg/kg/injection, schedule: Q01DX009 (ip), vehicle: saline with Tween-80 100 % of control | [1] 88 % of control | [2] 88 % of control | [3] 90 % of control | dose: 400.0 mg/kg/injection, schedule: Q01DX009 (ip), vehicle: saline with Tween-80 92 % of control

CC1(C)CC(C)(OC(=O)c2ccc(F)cc2)N=N1 (centres undefined)
inactive: dose: 12.5 mg/kg/injection, schedule: Q01DX009 (ip), vehicle: other 103 % of control | dose: 25.0 mg/kg/injection, schedule: Q01DX009 (ip), vehicle: other 113 % of control | dose: 50.0 mg/kg/injection, schedule: Q01DX009 (ip), vehicle: other 108 % of control | dose: 100.0 mg/kg/injection, schedule: Q01DX009 (ip), vehicle: other 113 % of control | dose: 200.0 mg/kg/injection, schedule: Q01DX009 (ip), vehicle: other 118 % of control

CCCCCCCCOc1cc2cc(O)oc3cc(=O)cc(o1)c23
inactive: dose: 60.0 mg/kg/injection, schedule: Q01DX005 (ip), vehicle: saline 108 % of control | dose: 120.0 mg/kg/injection, schedule: Q01DX005 (ip), vehicle: saline 122 % of control
